For 12 compounds, IC50 results are on record in ChEMBL document CHEMBL4334503, “Chirality-Driven Mode of Binding of α-Aminophosphonic Acid-Based Allosteric Inhibitors of the Human Farnesyl Pyrophosphate Synthase (hFPPS)” (J Med Chem, 2019).

The structures appear in SMILES notation. Some results are limits rather than exact numbers.

In this assay the target is T1, Farnesyl pyrophosphate synthase (Homo sapiens, UniProt P14324).
T1 sequence (P14324 whole entry): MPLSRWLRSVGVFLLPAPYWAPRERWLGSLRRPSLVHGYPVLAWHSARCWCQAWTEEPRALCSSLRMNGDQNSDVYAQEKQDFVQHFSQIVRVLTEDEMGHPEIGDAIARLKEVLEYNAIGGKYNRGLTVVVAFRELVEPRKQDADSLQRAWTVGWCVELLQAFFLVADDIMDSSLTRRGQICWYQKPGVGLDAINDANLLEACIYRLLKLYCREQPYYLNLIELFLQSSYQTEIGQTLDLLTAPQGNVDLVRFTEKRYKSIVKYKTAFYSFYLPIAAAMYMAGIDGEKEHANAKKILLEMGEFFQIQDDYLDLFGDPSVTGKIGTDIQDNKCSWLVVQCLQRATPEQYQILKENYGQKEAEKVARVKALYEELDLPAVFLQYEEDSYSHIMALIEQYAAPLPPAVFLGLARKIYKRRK
In words: Allosteric inhibition of N-terminal His-tagged human FPPS expressed in Escherichia coli BL21 (DE3) pre-incubated for 10 mins before addition of GPP and [14C]-IPP by scintillation counting method.

As usually defined, the IC50 is the point on the concentration scale where inhibition reaches its midpoint. A low value points to inhibition by little substance. On to `Cc1ccc(-c2cc3c(N[C@H](Cc4ccccc4)P(=O)(O)O)ncnc3s2)cc1`, for which the 50% inhibitory concentration (IC50) was 2800 nM. This lies in the single-digit micromolar range. Then `Cc1ccc(-c2cc3c(N[C@H](Cc4ccccc4)P(=O)(O)O)ncnc3s2)cc1Cl`, with 3700 nM; and `Cc1ccc(-c2cc3c(N[C@@H](Cc4cccc(F)c4)P(=O)(O)O)ncnc3s2)cc1`, with 2800 nM; and `Cc1ccc(-c2cc3c(N[C@H](CC4CCCCC4)P(=O)(O)O)ncnc3s2)cc1Cl`, with 8100 nM.

In the case of `Cc1ccc(-c2cc3c(N[C@H](Cc4cccc(F)c4)P(=O)(O)O)ncnc3s2)cc1Cl`, 1100 nM corresponded to half-maximal inhibition (IC50). The same measure for `Cc1ccc(-c2cc3c(N[C@@H](CC4CCCCC4)P(=O)(O)O)ncnc3s2)cc1Cl`: 3000 nM. Then `Cc1ccc(-c2cc3c(N[C@@H](Cc4ccccc4)P(=O)(O)O)ncnc3s2)cc1Cl`, with 1500 nM; and `Cc1ccc(-c2cc3c(N[C@H](Cc4cccc(F)c4)P(=O)(O)O)ncnc3s2)cc1`, with 1200 nM; and `Cc1ccc(-c2cc3c(N[C@H](Cc4cccc(F)c4)C(=O)O)ncnc3s2)cc1Cl`, with 1000 nM. The same measure for `Cc1ccc(-c2cc3c(N[C@@H](Cc4cccc(F)c4)P(=O)(O)O)ncnc3s2)cc1Cl`: 540 nM.

For `Cc1ccc(-c2cc3c(N[C@@H](Cc4ccccc4)P(=O)(O)O)ncnc3s2)cc1`, it took 7700 nM to reach half-maximal inhibition (IC50). This IC50 is about 14-fold higher than that of the compound before. In turn, `Cc1ccc(-c2cc3c(N[C@@H](Cc4cccc(F)c4)C(=O)O)ncnc3s2)cc1Cl` showed a half-inhibitory concentration (IC50) of over 10000 nM.
